Experimental data taken from patent EP2878306B1, “MODIFIED PEPTIDE, CB RECEPTOR LIGAND, KIT, IN VITRO PROCESS FOR […] RECEPTOR BONDS, USES, PHARMACEUTICAL COMPOSITION FOR […] RECEPTOR ACTIVITY” (Proteimax Biotecnologia Ltda, priority 2012, dated 2014).
No end group written: not given here.

Experiments:
CB1 receptor = target: T1, CB1 receptor (Homo sapiens, UniProt P21554); experiment: ELISA with striate membranes and anti-CB1 antibody, receptor activating percentage regarding the control; format: biochemical; details: for activity in CB1 receptors: striate membranes 5µg/pool, 1µM of each drug, 2 hours, ambient temperature, compared to control and SeqID:1
T1 construct: ligand for CB1 receptor through ELISA with striate membranes (5µg/pool) treated with 1µM of each drug; from tissue; host or cells: striatal ('striate') membranes
T1 sequence (P21554 whole entry): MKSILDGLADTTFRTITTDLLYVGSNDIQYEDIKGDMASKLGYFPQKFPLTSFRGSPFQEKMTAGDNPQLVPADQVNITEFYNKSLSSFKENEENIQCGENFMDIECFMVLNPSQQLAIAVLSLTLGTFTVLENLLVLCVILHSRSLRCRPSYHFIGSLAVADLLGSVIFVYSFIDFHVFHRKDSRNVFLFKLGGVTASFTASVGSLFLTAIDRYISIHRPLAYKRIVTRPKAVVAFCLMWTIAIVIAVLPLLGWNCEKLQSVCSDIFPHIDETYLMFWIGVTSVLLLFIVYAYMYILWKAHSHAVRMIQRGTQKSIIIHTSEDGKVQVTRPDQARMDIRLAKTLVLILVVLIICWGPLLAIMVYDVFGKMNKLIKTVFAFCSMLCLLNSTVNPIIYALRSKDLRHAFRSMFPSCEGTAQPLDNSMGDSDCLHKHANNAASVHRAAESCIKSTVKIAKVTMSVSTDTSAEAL
Description: (§1) The receptor activating percentage was calculated regarding the control, non-treated membrane (100%). […] Significant differences are indicated and p<0.05.

[1] = test system: animals supplemented with 20% saccharose; experiment: Glucose in animals supplemented with 20% saccharose; format: in vivo, Winstar rats; details: 100 µg/Kg; 15th and 30th days of treatment
Description: (§2) Winstar rats fed with standard regimen supplemented with 20% saccharose were used in the drinking water during 60 days before and during the 30 days-treatment with SALINE (negative control), Rimonabant (positive control), Peptide 19 (Pep 19) in the concentration of 50µg/Kg and Peptide 19 (Pep 19) in the concentration of 100 µg/Kg.

Thin wistar rats [2] = experiment: Test in Brown adipose tissue; format: in vivo; details: 100 ug/Kg, 3 days orally; in comparison with Rimonabant and/or saline; scale g/100g
Description: The measure of the adipose tissue was performed after finishing the treatment. The results are expressed by the brown adipose tissue weight measured at the treatment end (scale of g/100g). Rats administered with vehicle (saline) were subject to the same protocol (control).

[3] = test system: animals supplemented with 20% saccharose; experiment: Determination of Triglycerides in animals supplemented with 20% saccharose; format: in vivo, Wistar rats; details: 100 µg/Kg; after 30 days-treatment
Description: as §2, with “Wistar” for “Winstar”

Rats = experiment: Depression model (forced swim); format: in vivo; details: stated as contrary to Rimonabant
Description: The forced swim test was performed based on the previous tests ([Harkin et al., 2004], [Petit-Demouliere et al., 2005] and [Treit and Menard, 1998]).

[4] = test system: animals supplemented with 20% saccharose; experiment: Determination of the adiposity ratio in animals supplemented with 20% saccharose (Example 25); format: in vivo, Wistar rats; details: 100µg/Kg; 30 days-treatment; in comparison to further groups
Description: as §2, with “Wistar” for “Winstar”

[5] = test system: animals supplemented with 20% saccharose; experiment: Determination of the weight in animals supplemented with 20% saccharose; format: in vivo, Rats wistar; details: 100 µg/Kg; 3th to 5th week of treatment
Description: as §2, with “Rats wistar” for “Winstar rats”

[6] = test system: animals supplemented with 20% saccharose; experiment: Determination of the amount of gonadal adipose tissue in animals supplemented with 20% saccharose; format: in vivo, Wistar rats; details: 100µg/Kg; after the 30th day of treatment; in comparison to further groups
Description: as §2, with “Wistar” for “Winstar”

Thin wistar rats [7] = experiment: Serum leptin concentration determination; format: in vivo; details: 100 ug/Kg, 3 days orally; in comparison with saline
Description: (§3) Thin wistar rats were treated with a Rimonabant dosage (100 ug/Kg) or peptide 19 (Pep 19 100 ug/Kg) during 3 days orally. The measure of the serum leptin concentration was performed after finishing the treatment. The results are expressed ng/mL. Rats administered with vehicle (saline) were subject to the same protocol (control).

Thin wistar rats [8] = experiment: Test in Inguinal adipose tissue; format: in vivo; details: 100 ug/Kg, 3 days orally; in comparison with Rimonabant and/or saline; scale g/100g
Description: The measure of the adipose tissue was performed after finishing the treatment. The results are expressed by the inguinal adipose tissue weight measured at the treatment end (scale of g/100g). Rats administered with vehicle (saline) were subject to the same protocol (control).

Thin wistar rats [9] = experiment: Test in Retroperitoneal adipose tissue; format: in vivo; details: 100 ug/Kg, 3 days orally; in comparison with Rimonabant and/or saline; scale g/100g
Description: The measure of the adipose tissue was performed after finishing the treatment. The results are expressed by the retroperitoneal adipose tissue weight measured for treatment purpose (scale of g/100g). Rats administered with vehicle (saline) were subject to the same protocol (control).

Thin wistar rats [10] = experiment: Test in Mesenteric adipose tissue; format: in vivo; details: 100 ug/Kg, 3 days orally; in comparison with Rimonabant and/or saline; scale g/100g
Description: The measure of the adipose tissue was performed after finishing the treatment. The results are expressed by the mesenteric adipose tissue weight measured at the treatment end (scale of g/100g). Rats administered with vehicle (saline) were subject to the same protocol (control).

[11] = test system: animals supplemented with 20% saccharose; experiment: Determination of the amount of inguinal adipose tissue in animals supplemented with 20% saccharose; format: in vivo, Wistar rats; details: 100µg/Kg; after the 30th day of treatment; in comparison to further groups
Description: as §2, with “Wistar” for “Winstar”

non-obese wistar rats = experiment: Treatment acute model, 3 days orally (Figures 4 to 9); format: in vivo
From the text: Furthermore, in a treatment acute model (3 days of treatment orally in non-obese wistar rats) it was verified the brown adipose tissue activation, the retroperitoneal, inguinal and brown adipose tissues reduction, as well the adiposity ratio (Figures 4 to 9), effects not observed with Rimonabant.

[12] = test system: animals supplemented with 20% saccharose; experiment: Determination of the cholesterol in animals supplemented with 20% saccharose; format: in vivo, Wistar rats; details: after 30 days-treatment
Description: as §2, with “Wistar” for “Winstar”

Thin wistar rats [13] = experiment: Adiposity ratio determination; format: in vivo; details: 100 ug/Kg, 3 days orally; in comparison with Rimonabant and/or saline
Description: as §3, with “adiposity ratio” for “serum leptin concentration”, “treatment using the formula (%), (I=Σ fat deposits/body weight x 100).” for “treatment.”, “by the animal weight measured at the treatment end (scale of g/100g).” for “ng/mL.”

Thin wistar rats [14] = experiment: Test in Gonadal adipose tissue; format: in vivo; details: 100 ug/Kg, 3 days orally; in comparison with Rimonabant and/or saline; scale g/100g
Description: The measure of the adipose tissue was performed after finishing the treatment. The results are expressed by the gonadal adipose tissue weight measured at the treatment end (scale of g/100g). Rats administered with vehicle (saline) were subject to the same protocol (control).

[15] = test system: animals supplemented with 20% saccharose; experiment: Determination of the insulinemia in animals supplemented with 20% saccharose; format: in vivo, Wistar rats; details: 100 µg/Kg; after 30 days-treatment
Description: as §2, with “Wistar” for “Winstar”

[16] = test system: animals supplemented with 20% saccharose; experiment: Determination of the amount of mesenteric adipose tissue in animals supplemented with 20% saccharose; format: in vivo, Wistar rats; details: after the 30th day of treatment, in comparison to further groups
Description: as §2, with “Wistar” for “Winstar”

[17] = test system: animals supplemented with 20% saccharose; experiment: Determination of the adiposity ratio in animals supplemented with 20% saccharose (Example 26); format: in vivo, Wistar rats; details: 600µg/Kg; 30 days-treatment; in comparison to further groups
Description: (§4) Wistar rats fed with standard regimen supplemented with 20% saccharose were used in the drinking water during 60 days before and during the 30 days-treatment with SALINE (negative control), Rimonabant (positive control), Peptide 19 (Pep 19) in the concentration of 100µg/Kg, 300µg/Kg and 600µg/Kg.

[18] = test system: animals supplemented with 20% saccharose; experiment: Determination of the blood pressure in animals supplemented with 20% saccharose; format: in vivo, Wistar rats; details: 600µg/Kg; 30 days-treatment; in comparison to further groups
Description: as §4

CB2 receptor = experiment: ELISA with striate membranes for CB2 receptor, receptor activating percentage regarding the control; format: biochemical
Description: as §1

Substance: Cyclic peptide -Asp-Ile-Ile-Ala-Asp-Asp-Glu-Pro-Leu-Thr- [Example 6]
- Result (change in the activity of the cyclic form) (CB1 receptor; Table 1 summary, in vitro, receptor not stated): Change in the activity was not detected

Substance: DIIADDAPLT [SeqID:3]
- Result (activity regarding the CB1) (CB1 receptor; Table 1 summary): Reduces the activity regarding the CB1 (comparatively the SeqID:1).
- activity in CB1 receptors (CB1 receptor): smaller activity in CB1 receptors

Substance: DIIADDE [SeqID:4]
- Result (activity regarding the CB1) (CB1 receptor; Table 1 summary): Increases the activity regarding the CB1
- activity in CB1 receptors (CB1 receptor): improved inverse agonist activity in CB1 receptors

Substance: DIIADDEALT [SeqID:5]
- Result (high dosages) (CB1 receptor; Table 1 summary, high dosages): became agonist
- Result (low dosages) (CB1 receptor; Table 1 summary, low dosages): the inverse agonist activity was not detected
- activity in the endocannabinoid receptors, high dosages (CB1 receptor; high dosages, different dosages of each drug, 2 hours (Figure 14, CB1 receptor)): agonist activity
- activity in the endocannabinoid receptors, low dosages (CB1 receptor; low dosages, different dosages of each drug, 2 hours (Figure 14, CB1 receptor)): activity inverse agonist

Substance: DIIADDEPLT [SeqID:1]
- glycaemia [1]: lower glycaemia
- brown adipose tissue mass (Thin wistar rats [2]): smaller
- percentages of triglycerides (% from SALINE) [3]: lower percentages of triglycerides
- depression (forced swim, immobility time) (Rats): does not cause depression
- activity in CB1 receptors (CB1 receptor): inverse agonist of the CB1 receptor
- adiposity ratio (adipose tissue total mass corrected by the body weight) [4]: biggest amounts of adipose tissue
- weight percentages (% from the animals weight treated with SALINE) [5]: lower weight percentages
- gonadal adipose tissue, corrected by the body weight [6]: lower percentages of gonadal adipose tissue
- serum leptin concentration (Thin wistar rats [7]): smaller
- inguinal adipose tissue mass (Thin wistar rats [8]): smaller
- retroperitoneal adipose tissue mass (Thin wistar rats [9]): smaller
- mesenteric adipose tissue mass (Thin wistar rats [10]): no difference
- inguinal adipose tissue, corrected by the body weight [11]: biggest amounts of inguinal adipose tissue
- adiposity ratio (non-obese wistar rats; 3 days of treatment orally): reduction
- brown adipose tissue (non-obese wistar rats; 3 days of treatment orally): reduction
- brown adipose tissue activation (non-obese wistar rats; 3 days of treatment orally): activation
- inguinal adipose tissue (non-obese wistar rats; 3 days of treatment orally): reduction
- retroperitoneal adipose tissue (non-obese wistar rats; 3 days of treatment orally): reduction
- activity when administered orally (non-obese wistar rats; oral administration): has activity even when administered orally
- cholesterol percentages (% from SALINE) ([12]; 50µg/Kg): lower cholesterol percentages
- cholesterol percentages (% from SALINE) ([12]; 100 µg/Kg): lower cholesterol percentages
- adiposity ratio (Thin wistar rats [13]): smaller
- gonadal adipose tissue mass (Thin wistar rats [14]): no difference
- insulinemia [15]: lower average of insulinemia
- mesenteric adipose tissue, corrected by the body weight ([16]; 50 µg/Kg): lower percentages of mesenteric adipose tissue
- mesenteric adipose tissue, corrected by the body weight ([16]; 100µg/Kg): lower percentages of mesenteric adipose tissue
- adiposity ratio (adipose tissue total mass corrected by the body weight) [17]: lower amounts of adipose tissue
- blood pressure [18]: lower blood pressure

Substance: DILADDEPLT [SeqID:2]
- Result (activity regarding the CB1) (CB1 receptor; Table 1 summary): Reduces the activity regarding the CB1
- Result (activity in CB2) (CB2 receptor; Table 1 summary): raises a strong inverse agonist activity in CB2
- activity in CB2 receptors (CB2 receptor; striate membranes 5µg/pool, 1 µM of each drug, 2 hours, ambient temperature): inverse agonist of the CB2 receptor
